The target of one experiment is T1, STAT3 (aa 127-722) (Homo sapiens, UniProt P40763).
T1 construct: STAT3 (aa 127-722) at a concentration of 200 nM
As to the kind of experiment: SPR assay of STAT3 binding to immobilized EGFR pY1068 phosphododecapeptide. The note with it: for % of max binding at 10 μm: pEGFRp-STAT3 binding (SPR) at pH 8, compound 10 μm; for % of max binding at 100 μm: pEGFRp-STAT3 binding (SPR) at pH 8, compound 100 μm. As to the method:
Surface plasmon resonance (SPR) assay of STAT3 binding pY-peptide. STAT3 (aa 127-722) at a concentration of 200 nM in 20 mM Tris buffer (pH 8) was pre-incubated without or with compounds prior to injection onto an SA chip immobilized with phosphorylated and control non-phosphorylated biotinylated EGFR derived dodecapeptides based on sequence surrounding Y1068 (Shao et al., 2004), on a Biacore 3000 biosensor (Biacore inc., Piscataway N.J.) and analyzed as described (Bharadwaj et al., 2016).
Surface Plasmon Resonance (SPR) was performed on the 24 compounds to determine their ability to block binding of purified STAT3 to an immobilized phosphododecapeptide based on EGFR Y1068 (EGFR pY-peptide), as described (Xu et al., 2009).

Another experiment deals with G-CSF-stimulated pSTAT3. Put plainly: Inhibition of G-CSF-stimulated pSTAT3 in Kasumi-1 cells (Luminex, pSTAT3/GAPDH). The experiment is classed as cell-based. The note with it: Kasumi1 cells, single concentration of 10 μM, G-CSF 100 ng/ml; pSTAT3/GAPDH relative to DMSO treated cells. As to the method:
[…] Total protein was assayed for pSTAT3 and GAPDH levels by Luminex. GAPDH-normalized pSTAT3 values were divided by the same for untreated cells and expressed as percentage. These values were plotted as a function of Log [M] compound, and IC50 calculated using GraphPad. Data from representative experiments from at least two repeats is shown.
Luminex bead-based assay. Luminex bead-based assays were used to determine levels of pSTAT3, pSTAT1, pSTAT5, and GAPDH, as described (Bharadwaj et al., 2015). […]

T1 sequence (P40763 127-722 isoform P40763-3 limits assumed, species assumed): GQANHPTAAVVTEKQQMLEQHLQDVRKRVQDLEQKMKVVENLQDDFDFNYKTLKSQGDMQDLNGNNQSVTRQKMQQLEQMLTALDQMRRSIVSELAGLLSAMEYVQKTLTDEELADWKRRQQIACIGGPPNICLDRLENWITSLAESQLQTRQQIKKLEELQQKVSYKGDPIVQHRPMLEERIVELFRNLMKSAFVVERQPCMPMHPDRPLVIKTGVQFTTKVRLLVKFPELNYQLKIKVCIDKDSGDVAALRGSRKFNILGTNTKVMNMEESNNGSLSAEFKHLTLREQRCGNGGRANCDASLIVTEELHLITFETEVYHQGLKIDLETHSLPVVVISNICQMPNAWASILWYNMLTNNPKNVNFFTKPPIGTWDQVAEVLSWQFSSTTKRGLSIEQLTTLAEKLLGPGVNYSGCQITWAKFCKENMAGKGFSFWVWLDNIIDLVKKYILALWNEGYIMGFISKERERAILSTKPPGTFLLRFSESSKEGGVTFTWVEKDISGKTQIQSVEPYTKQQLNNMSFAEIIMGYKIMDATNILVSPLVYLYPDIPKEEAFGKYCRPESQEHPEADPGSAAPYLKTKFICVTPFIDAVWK

`O=C(O)c1ccc(-c2ccc(/C=C3/NC(=O)N(Cc4ccccc4F)C3=O)o2)cc1Cl` [SPEC-82]: on STAT3 (aa 127-722), the “% of max binding at 10 μm” value was determined as 109.3% and the “% of max binding at 100 μm” value is given as 28.4%. Further, the “% of Control Stimulated pSTAT3” value in the experiment on G-CSF-stimulated pSTAT3 was 27%.
With `CC1(C)CC(=O)c2sc(NC(=O)CSc3nnc(SCC(=O)Nc4nc5c(s4)C(=O)CC(C)(C)C5)s3)nc2C1` [SPEC-103], on STAT3 (aa 127-722), the “% of max binding at 10 μm” value was 76.0% and the “% of max binding at 100 μm” value is on record as 10.4%. In addition, in the experiment with G-CSF-stimulated pSTAT3, the “% of Control Stimulated pSTAT3” value is given as 46%.
Consider `O=C(Nc1ccc(Oc2ccccc2Cl)cc1)C1C2CC3C(OC(=O)C31)C2Br` (stereo not shown) [SPEC-73], for which, on STAT3 (aa 127-722), the “% of max binding at 10 μm” value is listed as 58.5% and the “% of max binding at 100 μm” value was determined as 31.5%. For the same molecule, the “% of Control Stimulated pSTAT3” value in the experiment on G-CSF-stimulated pSTAT3 was determined as 38%.
As for `CC(C)c1ccc(NC(=O)C2C3C=CC(CC3)C2C(=O)O)cc1` (stereo not shown) [SPEC-65], at STAT3 (aa 127-722), the “% of max binding at 10 μm” value is 57.5% and the “% of max binding at 100 μm” value amounted to 43.5%. Further, the “% of Control Stimulated pSTAT3” value in the experiment on G-CSF-stimulated pSTAT3 worked out at 35%.
`CCCCOc1ccc(/C=C2\SC(=O)NC2=O)cc1OCC` [SPEC-20]: at STAT3 (aa 127-722), the “% of max binding at 10 μm” value came to 76.7% and the “% of max binding at 100 μm” value is given as 46.1%. In the experiment with G-CSF-stimulated pSTAT3, the “% of Control Stimulated pSTAT3” value stood at 27%.
Take `NC(=O)CCN1CCN(CCOC2Cc3cc(Cl)ccc3Sc3ccccc32)CC1` (stereo not shown) [SPEC-109]: on STAT3 (aa 127-722), the “% of max binding at 10 μm” value worked out at 97.1% and the “% of max binding at 100 μm” value is reported as 82.3%. The “% of Control Stimulated pSTAT3” value in the experiment with G-CSF-stimulated pSTAT3 was determined as 1%.
In the case of `COc1cc(C=C2C(=O)OC(C)(c3ccccc3)OC2=O)ccc1OCc1cccc(C(=O)O)c1` (stereo not shown) [SPEC-60], the “% of Control Stimulated pSTAT3” value in the experiment with G-CSF-stimulated pSTAT3 came out at 98%.
In the case of `N#Cc1ccccc1Sc1ccccc1C(=O)Nc1ccc(OCC(=O)N2CCOCC2)cc1` [SPEC-14], in the experiment on G-CSF-stimulated pSTAT3, the “% of Control Stimulated pSTAT3” value is 91%.
Consider `CCN(CC)S(=O)(=O)c1ccc(NC(=O)CCCC(=O)Nc2ccc(S(=O)(=O)N(CC)CC)cc2)cc1` [SPEC-51], for which the “% of Control Stimulated pSTAT3” value with G-CSF-stimulated pSTAT3 is listed as 87%.
As to `O=C(CN1C(=O)S/C(=C/c2ccc(Cl)cc2)C1=O)Nc1ccc(S(=O)(=O)Nc2nccs2)cc1` [SPEC-105], in the experiment on G-CSF-stimulated pSTAT3, the “% of Control Stimulated pSTAT3” value worked out at 86%.
As to `COc1ccc(CCNC2CC(=O)N(c3ccc(N4C(=O)CC(NCCc5ccc(OC)cc5)C4=O)cc3)C2=O)cc1` (stereo not shown) [SPEC-31], the “% of Control Stimulated pSTAT3” value in the experiment on G-CSF-stimulated pSTAT3 was found to be 99%.
Still for that read-out and setting: as for `CC1=CC(=O)OC2C=C(OCCCCCCOC3=CC4OC(=O)C=C(C)C4C=C3)C=CC12` (stereo not shown) [SPEC-17], the figure is 106%.
As to `O=C(CN1C(=O)S/C(=C\c2ccc(-c3cc(C(=O)O)ccc3Cl)o2)C1=O)Nc1ccccc1` [SPEC-23], the “% of Control Stimulated pSTAT3” value with G-CSF-stimulated pSTAT3 turned out to be 114%.
For `CC(=O)c1ccc(NC(=O)NC2CCCCC2)cc1` [SPEC-63], the “% of Control Stimulated pSTAT3” value with G-CSF-stimulated pSTAT3 is on record as 118%.
On to `COc1ccc(CCNC(=O)c2cccc(C(=O)NCCc3ccc(OC)c(OC)c3)c2)cc1OC` [SPEC-67], for which, on STAT3 (aa 127-722), the “% of max binding at 10 μm” value was 64.1% and the “% of max binding at 100 μm” value was determined as 51.3%.
`O=C(CCCCC(=O)Nc1ccc(S(=O)(=O)Nc2ccc(F)cc2)cc1)Nc1ccc(S(=O)(=O)Nc2ccc(F)cc2)cc1` [SPEC-53]: in the experiment with G-CSF-stimulated pSTAT3, the “% of Control Stimulated pSTAT3” value is 71%.
Turning to `CCOc1ccc(N(C(C)C(=O)Nc2cccc(Cl)c2C)S(C)(=O)=O)cc1` (stereo not shown) [SPEC-86], on STAT3 (aa 127-722), the “% of max binding at 10 μm” value is listed as 120.1% and the “% of max binding at 100 μm” value is listed as 59.1%. Moreover, in the experiment on G-CSF-stimulated pSTAT3, the “% of Control Stimulated pSTAT3” value amounted to 5%.
For `CCn1c(CNc2ccc(Cl)cc2)nnc1SC(C)C(=O)Nc1ccc(C(C)=O)cc1` (stereo not shown) [SPEC-90], at STAT3 (aa 127-722), the “% of max binding at 10 μm” value is listed as 132.2% and the “% of max binding at 100 μm” value was 59.5%. In addition, the “% of Control Stimulated pSTAT3” value in the experiment with G-CSF-stimulated pSTAT3 worked out at 4%.
Turning to `COc1ccc(/C=N/NC(=O)COc2ccc(Cl)cc2)cc1COc1cccc2cccnc12` [SPEC-69], the “% of Control Stimulated pSTAT3” value with G-CSF-stimulated pSTAT3 is 112%.
In the case of `COC(=O)c1ccc(N2C(=O)CC(SC(=NCCc3ccc(S(N)(=O)=O)cc3)Nc3ccccc3)C2=O)cc1` (stereo not shown) [SPEC-100], on STAT3 (aa 127-722), the “% of max binding at 10 μm” value came out at 70.8% and the “% of max binding at 100 μm” value is 15.4%. Moreover, the “% of Control Stimulated pSTAT3” value in the experiment with G-CSF-stimulated pSTAT3 is on record as 42%.
Consider `O=C(CCCCC(=O)Nc1ccc(S(=O)(=O)N2CCCC2)cc1)Nc1ccc(S(=O)(=O)N2CCCC2)cc1` [SPEC-55], for which the “% of Control Stimulated pSTAT3” value in the experiment on G-CSF-stimulated pSTAT3 was determined as 114%.
Turning to `CC1CCN(S(=O)(=O)c2ccc(NC(=O)CCCC(=O)Nc3ccc(S(=O)(=O)N4CCC(C)CC4)cc3)cc2)CC1` [SPEC-52], the “% of Control Stimulated pSTAT3” value with G-CSF-stimulated pSTAT3 amounted to 120%.
On to `CC(=O)c1ccc(NC(=O)C2C3CC/C=C\CCC32)cc1` (stereo not shown) [SPEC-102], for which, at STAT3 (aa 127-722), the “% of max binding at 10 μm” value is reported as 73.7% and the “% of max binding at 100 μm” value worked out at 21.4%. Further, the “% of Control Stimulated pSTAT3” value with G-CSF-stimulated pSTAT3 is listed as 38%.
Consider `NC(=O)COc1ccc(/C=N/NC(=O)CCCOc2ccc(Cl)cc2Cl)cc1` [SPEC-12], for which, in the experiment on G-CSF-stimulated pSTAT3, the “% of Control Stimulated pSTAT3” value worked out at 75%.
As for `CCN1C(=O)/C(=C/c2ccc(OCC(=O)O)c(OC)c2)SC1=S` [SPEC-59], the “% of Control Stimulated pSTAT3” value in the experiment with G-CSF-stimulated pSTAT3 stood at 78%.
Regarding `O=C(COc1ccc(/C=C2/SC(=O)N(CC(=O)N3CCN(c4ccccc4)CC3)C2=O)cc1Br)Nc1ccccc1` [SPEC-11], the “% of Control Stimulated pSTAT3” value in the experiment with G-CSF-stimulated pSTAT3 is on record as 86%.
Regarding `COC(=O)CCC(=O)Nc1ccc(Cc2ccc(NC(=O)CCC(=O)OC)cc2)cc1` [SPEC-108], the “% of Control Stimulated pSTAT3” value in the experiment on G-CSF-stimulated pSTAT3 turned out to be 98%.
With `Cc1c(Cl)c(=O)oc2c(C)c(OCc3ccc([N+](=O)[O-])cc3)ccc12` [SPEC-10], in the experiment on G-CSF-stimulated pSTAT3, the “% of Control Stimulated pSTAT3” value is recorded as 87%.
Still for that read-out and setting: as for `CCN1C(=O)N/C(=C/c2ccc(OCc3cccc(C(=O)O)c3)c(Cl)c2)C1=O` [SPEC-79], the figure is 79%; as for `CC(=O)c1ccc(NC(=O)CSc2nn3c(SCC(=O)Nc4ccc(C(C)=O)cc4)nnc3s2)cc1` [SPEC-104], 91%; as for `CCN1C(=O)S/C(=C/c2ccc(OCc3cccc(C(=O)O)c3)c(Br)c2)C1=O` [SPEC-83], 61%.
On the same count and under the same terms, for `CC(=O)c1ccc(NC(=O)CC2S/C(=N\N=C3CCCCCC3)NC2=O)cc1` (stereo not shown) [SPEC-99] the value was 67%; for `CN1CCS/C1=C/C=C1\SC(=S)N(CC(=O)O)C1=O` [SPEC-107], 107%; for `CCCC(NC(=O)c1ccccc1)C(=O)OCC(=O)Nc1nc2ccc(OC)cc2s1` (stereo not shown) [AG-690/15437974], 82%.
As to `CS(=O)(=O)c1ccc2nc(NC(=O)c3cccc(Cn4cc(Cl)cn4)c3)sc2c1` [SPEC-66], at STAT3 (aa 127-722), the “% of max binding at 10 μm” value was determined as 57.2% and the “% of max binding at 100 μm” value stood at 15.9%. The “% of Control Stimulated pSTAT3” value in the experiment with G-CSF-stimulated pSTAT3 is 48%.
